Literature values, collected in paper PMC9097188, “Design, Synthesis, and Molecular Modeling Studies of a Novel Benzimidazole as an Aromatase Inhibitor” (ACS Omega, 2022).

Target: aromatase
Conditions: 3D-QSAR data set, IC50 converted to pIC50; SI reference list; cited from earlier work

Structure (SMILES) | Experimental pIC50
Clc1cccc([C@@H](c2ccc3[nH]ccc3c2)n2ccnc2)c1 [3R] | 6.527
Clc1cccc([C@H](c2ccc3[nH]ccc3c2)n2ccnc2)c1 [3S] | 6.527
N#Cc1ccc([C@H](c2ccc3[nH]ccc3c2)n2ccnc2)cc1 [5R] | 7.714
N#Cc1ccc(C(c2ccc3[nH]ccc3c2)n2ccnc2)cc1 (stereo not drawn) [5S] | 7.714
CCn1c([C@@H](c2cccc(Cl)c2)n2ccnc2)c(C)c2cc(Br)ccc21 [69R] | 6.027
CCn1c([C@H](c2cccc(Cl)c2)n2ccnc2)c(C)c2cc(Br)ccc21 [69S] | 6.027
CCn1c([C@@H](c2ccc(F)cc2)n2ccnc2)c(C)c2ccccc21 [73R] | 6.921
CCn1c([C@H](c2ccc(F)cc2)n2ccnc2)c(C)c2ccccc21 [73S] | 6.921
CCn1cc([C@@H](c2ccc(F)cc2)n2ccnc2)c2cc(C#N)ccc21 [76R] | 6.495
CCn1cc([C@H](c2ccc(F)cc2)n2ccnc2)c2cc(C#N)ccc21 [76S] | 6.495
CC(C)n1cc([C@@H](c2ccc(F)cc2)n2ccnc2)c2cc(Br)ccc21 [78R] | 6.495
CC(C)n1cc([C@H](c2ccc(F)cc2)n2ccnc2)c2cc(Br)ccc21 [78S] | 6.495
O[C@](c1ccc(Br)cc1)(c1cccnc1)c1cc2ccccc2o1 [85R] | 4.600
O[C@@](c1ccc(Br)cc1)(c1cccnc1)c1cc2ccccc2o1 [85S] | 4.600
O[C@@](c1cccnc1)(c1cc2ccccc2o1)c1ccc(Cl)cc1Cl [87R] | 5.658
O[C@](c1cccnc1)(c1cc2ccccc2o1)c1ccc(Cl)cc1Cl [87S] | 5.658
CCn1cc([C@H](c2ccc(Cl)cc2Cl)n2cccc2)c2cc(Br)ccc21 [118R] | 6.478
CCn1cc([C@@H](c2ccc(Cl)cc2Cl)n2cccc2)c2cc(Br)ccc21 [118S] | 6.478
CCn1cc([C@@H](c2ccc(F)cc2)n2cncn2)c2cc(Br)ccc21 [119R] | 6.016
CCn1cc([C@H](c2ccc(F)cc2)n2cncn2)c2cc(Br)ccc21 [119S] | 6.016
CCn1cc([C@H](c2ccc(Cl)cc2Cl)n2cncn2)c2cc(Br)ccc21 [120R] | 6.206

Structure (SMILES) | Experimental pIC50
CCn1cc([C@@H](c2ccc(Cl)cc2Cl)n2cncn2)c2cc(Br)ccc21 [120S] | 6.206
CCn1cc([C@H](c2ccccc2Cl)n2ccnc2)c2cc(Br)ccc21 [121R] | 6.009
CCn1cc([C@@H](c2ccccc2Cl)n2ccnc2)c2cc(Br)ccc21 [121S] | 6.009
CCn1cc([C@@H](c2ccc(F)cc2)n2cncn2)c2cc(Br)ccc21 [123R] | 5.149
CCn1cc(C(c2ccc(F)cc2)n2cncn2)c2cc(Br)ccc21 (stereo not drawn) [123S] | 5.149
COc1ccc(-n2c(Cn3ccnc3)cc3ccccc32)cc1 [compound 12] | 7.111
Cc1ccc2cc(Cn3ccnc3)n(-c3ccccc3)c2c1 [compound 15] | 7.670
COc1ccc(-n2c(Cn3ccnc3)cc3ccc(C)cc32)cc1 [compound 17] | 6.858
Cc1ccc2cc(Cn3ccnc3)n(-c3ccc(C#N)cc3)c2c1 [compound 19] | 7.568
COc1ccc2cc(Cn3ccnc3)n(-c3ccc(F)cc3)c2c1 [compound 21] | 7.310
COc1ccc(-n2c(Cn3ccnc3)cc3ccc(Cl)cc32)cc1 [compound 26] | 6.692
Cc1ccc(S(=O)(=O)NCCc2c(C(c3ccccc3)c3[nH]c4ccccc4c3CCNS(=O)(=O)c3ccc(C)cc3)[nH]c3ccccc23)cc1 [compound 29] | 4.924
O=[N+]([O-])c1ccc(S(=O)(=O)NCCc2c(C(c3ccccc3)c3[nH]c4ccccc4c3CCNS(=O)(=O)c3ccc([N+](=O)[O-])cc3)[nH]c3ccccc23)cc1 [compound 30] | 4.951
COc1ccc(S(=O)(=O)NCCc2c(C(c3ccccc3)c3[nH]c4ccccc4c3CCNS(=O)(=O)c3ccc(OC)cc3)[nH]c3ccccc23)cc1 [compound 31] | 5.456
O=[N+]([O-])c1ccc(C(c2[nH]c3ccccc3c2CCNS(=O)(=O)c2ccc(Br)cc2)c2[nH]c3ccccc3c2CCNS(=O)(=O)c2ccc(Br)cc2)cc1 [compound 32] | 5.569
O=[N+]([O-])c1ccc(C(c2[nH]c3ccccc3c2CCNS(=O)(=O)c2ccc(C(F)(F)F)cc2)c2[nH]c3ccccc3c2CCNS(=O)(=O)c2ccc(C(F)(F)F)cc2)cc1 [compound 34] | 5.398
N#Cc1ccc(C(c2[nH]c3ccccc3c2CCNS(=O)(=O)c2ccc(Cl)cc2)c2[nH]c3ccccc3c2CCNS(=O)(=O)c2ccc(Cl)cc2)cc1 [compound 35] | 5.260
N#Cc1ccc(C(c2[nH]c3ccccc3c2CCNS(=O)(=O)c2ccc(F)cc2)c2[nH]c3ccccc3c2CCNS(=O)(=O)c2ccc(F)cc2)cc1 [compound 36] | 5.009
N#Cc1ccc(C(c2[nH]c3ccccc3c2CCNS(=O)(=O)c2ccc(C(F)(F)F)cc2)c2[nH]c3ccccc3c2CCNS(=O)(=O)c2ccc(C(F)(F)F)cc2)cc1 [compound 37] | 4.815
O=S(=O)(NCCc1c(C(c2ccc(Br)cc2)c2[nH]c3ccccc3c2CCNS(=O)(=O)c2ccc(Cl)cc2)[nH]c2ccccc12)c1ccc(Cl)cc1 [compound 38] | 5.569
O=S(=O)(NCCc1c(C(c2ccc(Br)cc2)c2[nH]c3ccccc3c2CCNS(=O)(=O)c2ccc(C(F)(F)F)cc2)[nH]c2ccccc12)c1ccc(C(F)(F)F)cc1 [compound 39] | 5.469

Structure (SMILES) | Experimental pIC50
O=S(=O)(NCCc1c(C(c2ccc(F)cc2)c2[nH]c3ccccc3c2CCNS(=O)(=O)c2ccc(Br)cc2)[nH]c2ccccc12)c1ccc(Br)cc1 [compound 40] | 5.119
O=S(=O)(NCCc1c(C(c2ccc(F)cc2)c2[nH]c3ccccc3c2CCNS(=O)(=O)c2ccc(Cl)cc2)[nH]c2ccccc12)c1ccc(Cl)cc1 [compound 41] | 5.268
O=S(=O)(NCCc1c(C(c2ccc(F)cc2)c2[nH]c3ccccc3c2CCNS(=O)(=O)c2ccc(C(F)(F)F)cc2)[nH]c2ccccc12)c1ccc(C(F)(F)F)cc1 [compound 42] | 5.357
O=S(=O)(NCCc1c(C(c2ccc(C(F)(F)F)cc2)c2[nH]c3ccccc3c2CCNS(=O)(=O)c2ccc(Br)cc2)[nH]c2ccccc12)c1ccc(Br)cc1 [compound 43] | 5.420
O=S(=O)(NCCc1c(C(c2ccc(C(F)(F)F)cc2)c2[nH]c3ccccc3c2CCNS(=O)(=O)c2ccc(Cl)cc2)[nH]c2ccccc12)c1ccc(Cl)cc1 [compound 44] | 5.495
O=S(=O)(NCCc1c(C(c2ccc(C(F)(F)F)cc2)c2[nH]c3ccccc3c2CCNS(=O)(=O)c2ccc(C(F)(F)F)cc2)[nH]c2ccccc12)c1ccc(C(F)(F)F)cc1 [compound 45] | 5.638
COc1ccc(S(=O)(=O)NCCc2c(C(c3ccc(O)cc3)c3[nH]c4ccccc4c3CCNS(=O)(=O)c3ccc(OC)cc3)[nH]c3ccccc23)cc1 [compound 46] | 6.155
O=S(=O)(NCCc1c(C(c2ccc(O)cc2)c2[nH]c3ccccc3c2CCNS(=O)(=O)c2ccc(Cl)cc2)[nH]c2ccccc12)c1ccc(Cl)cc1 [compound 47] | 5.854
O=S(=O)(NCCc1c(C(c2ccc(O)cc2)c2[nH]c3ccccc3c2CCNS(=O)(=O)c2ccc(C(F)(F)F)cc2)[nH]c2ccccc12)c1ccc(C(F)(F)F)cc1 [compound 48] | 5.886
O=[N+]([O-])c1ccc(S(=O)(=O)NCCc2c(C(c3ccc(O)cc3)c3[nH]c4ccccc4c3CCNS(=O)(=O)c3ccc([N+](=O)[O-])cc3)[nH]c3ccccc23)cc1 [compound 49] | 5.638
Cc1ccc(S(=O)(=O)NCCc2c(C(c3ccccc3O)c3[nH]c4ccccc4c3CCNS(=O)(=O)c3ccc(C)cc3)[nH]c3ccccc23)cc1 [compound 50] | 5.387
O=[N+]([O-])c1ccc(S(=O)(=O)NCCc2c(C(c3ccccc3O)c3[nH]c4ccccc4c3CCNS(=O)(=O)c3ccc([N+](=O)[O-])cc3)[nH]c3ccccc23)cc1 [compound 51] | 5.553
COc1ccc(S(=O)(=O)NCCc2c(C(c3ccccc3O)c3[nH]c4ccccc4c3CCNS(=O)(=O)c3ccc(OC)cc3)[nH]c3ccccc23)cc1 [compound 52] | 6.097
O=S(=O)(NCCc1c(C(c2ccccc2O)c2[nH]c3ccccc3c2CCNS(=O)(=O)c2ccc(Cl)cc2)[nH]c2ccccc12)c1ccc(Cl)cc1 [compound 53] | 5.377
O=[N+]([O-])c1cccc(S(=O)(=O)NCCc2c(C(c3ccccc3O)c3[nH]c4ccccc4c3CCNS(=O)(=O)c3cccc([N+](=O)[O-])c3)[nH]c3ccccc23)c1 [compound 54] | 5.770
O=[N+]([O-])c1ccccc1S(=O)(=O)NCCc1c(C(c2ccccc2O)c2[nH]c3ccccc3c2CCNS(=O)(=O)c2ccccc2[N+](=O)[O-])[nH]c2ccccc12 [compound 55] | 5.337
COc1ccc(S(=O)(=O)NCCc2c(C(c3cc(OC)c(O)c(OC)c3)c3[nH]c4ccccc4c3CCNS(=O)(=O)c3ccc(OC)cc3)[nH]c3ccccc23)cc1 [compound 56] | 5.602
O=S(=O)(NCCc1c(C(c2ccc3c(c2)Cc2ccccc2-3)c2[nH]c3ccccc3c2CCNS(=O)(=O)c2ccc(Cl)cc2)[nH]c2ccccc12)c1ccc(Cl)cc1 [compound 57] | 5.056
CCn1c2ccccc2c2cc(C(c3[nH]c4ccccc4c3CCNS(=O)(=O)c3ccccc3)c3[nH]c4ccccc4c3CCNS(=O)(=O)c3ccccc3)ccc21 [compound 58] | 5.409
COc1ccc(S(=O)(=O)NCCc2c(C3(c4[nH]c5ccccc5c4CCNS(=O)(=O)c4ccc(OC)cc4)C(=O)Nc4ccccc43)[nH]c3ccccc23)cc1 [compound 59] | 5.553
O=C1Nc2ccccc2C1(c1[nH]c2ccccc2c1CCNS(=O)(=O)c1ccc(Cl)cc1)c1[nH]c2ccccc2c1CCNS(=O)(=O)c1ccc(Cl)cc1 [compound 60] | 5.081
